Experimental data reported in patent US9701707B2, “Methods of synthesizing substituted purine compounds” (Epizyme, Inc., priority 2013, dated 2017).

Columns and labels:
Type in all cases: physicochemical
[1] = Equilibrium solubility in organic solvents; conditions: RT; for Remaining Solid: XRPD; for solubility at 24 h: organic solvent or mixture, thermodynamic from solid
Description: Approximately 10 mg of Form B was weighed into a 1-ml glass vial followed by addition of 0.5 ml relevant media. Each sample was continuously stirred using a magnetic stir bar at 25° C. for 24 h. The suspension was then filtered using a nylon membrane with a pore diameter of 0.22 μm. The filtrates were diluted for HPLC analysis and final pH was measured. The solid residue of each sample was collected for XRPD analysis. The solubility of Form B was also determined in commonly used organic solvents (diluents or HPLC mobile phase). The solubility data summarized in Table 10 indicates Form B is quite soluble in MeOH, EtOH, and IPA.

[2] = Solid-state photostability
Description: The solid-state photostability of EP-1 trihydrate (x is 3) was assessed upon exposure to UV/Vis light according to ICH guidelines. Loss of claim %, loss of area %, and degradates were evaluated versus dark control samples.
Solid-State Photostability: Weighed ˜5 mg Form B into glass vials with 2 vials covered with foil as the controls. Put these 2 samples with their controls into chamber and expose them to Vis (10 Kilo lux) for 120 hrs followed by UV (10 W/m^2) for 20 hrs (per ICH guidelines). At the end of Vis, take 1 sample and 1 control out for analysis and the others were taken out after both Vis and UV exposure.

[3] = Solution photostability
Description: Solution Photostability: Weighed ˜1 mg of Form B and dissolved in 3 solutions at different pHs (0.01 N HCl, 0.01 N NaOH and water). Methanol was added as a co-solvent to dissolve Form B in solutions (i.e., 10% (v/v) methanol in 0.01 N HCl, 20% (v/v) in water and 30% (v/v) in 0.01 N NaOH), the final concentration was 0.1 mg/mL. For each solution, 1 sample and 1 control covered in foil were put into the photo chamber for Vis study (2 vials total for each solution). Measure the concentration and monitor the degradation.

[4] = Equilibrium solubility in aqueous media; conditions: for Solubility: LOD 0.1 μg/ml
Description: Approximately 10 mg of Form B was weighed into a 1-ml glass vial followed by addition of 0.5 ml relevant media. Each sample was continuously stirred using a magnetic stir bar at 25° C. for 24 h. The suspension was then filtered using a nylon membrane with a pore diameter of 0.22 μm. The filtrates were diluted for HPLC analysis and final pH was measured. The solid residue of each sample was collected for XRPD analysis.
The solubilities of Form B in water and five different pH values at 25° C. were determined by HPLC after 24 h equilibration. Solubility data for Form B was obtained across the physiological pH by using buffer solutions from pH 2 to pH 10.
Preparation of pH Buffers • pH 2: 0.01N HCl solution. Dilute 1 ml of 1 N HCl with H2O up to a total volume of 100 ml. Measure the pH and precisely adjust to pH=2.00 using a few microliters of 1N HCl or 1N NaOH. • pH 4: 50 mM Na citrate buffer. Prepare a 50 mM citric acid solution by diluting 10 ml of 1N citric acid with H2O up to a total volume of 200 ml. Slowly add solid NaOH under stirring to increase the pH to 3.8-4.0 and use a few microliters of 1N NaOH for final adjustment to pH 4.00. • pH 6: 50 mM Na citrate buffer. Use the same procedure as the pH 4 buffer and adjust to pH=6.00 • pH 8: 50 mM Na phosphate buffer. Prepare a 50 mM NaH2PO4 solution by dissolving 6.00 g NaH2PO4 in 1 L of H2O and a 50 mM Na2HPO4 solution by dissolving 7.10 g in 1 L of H2O. Mix 10 ml of the NaH2PO4 solution with 140 ml of the Na2HPO4 solution in a beaker. Adjust to pH 8.00 by addition of small amounts of 50 mM NaH2PO4 or Na2HPO4 solution. • pH 10: 50 mM Na carbonate buffer. Prepare a 50 mM carbonate solution by dissolving 840 mg of sodium bicarbonate (NaHCO3) in about 180 ml of H2O. Slowly adjust the pH to 10.0±0.1 by addition of 1N NaOH. Add water to reach the total volume of 200 ml and adjust to pH 10.00 with 1N NaOH.

[5] = Bulk control (covered with foil), Vis Stability (1.2 Mil lux-hours)
[6] = Bulk control (covered with foil), Vis-UV stability (1.2 Mil lux-hours + 200 Watt-hours/m^2)
[7] = Bulk, Vis Stability (1.2 Mil lux-hours)
[8] = Bulk, Vis-UV stability (1.2 Mil lux-hours + 200 Watt-hours/m^2)
[9] = 0.01N HCl Dark, Vis Stability (1.2 Mil lux-hours), final pH 2.1
[10] = 0.01N HCl Dark, Vis-UV Stability (1.2 Mil lux-hours + 200 Watt-hours/m^2), final pH 2.1
[11] = 0.01N HCl Light, Vis Stability (1.2 Mil lux-hours), final pH 2.1
[12] = 0.01N HCl Light, Vis-UV Stability (1.2 Mil lux-hours + 200 Watt-hours/m^2), final pH 2.1
[13] = 0.01N NaOH Dark, Vis Stability (1.2 Mil lux-hours), final pH 11.6, precipitation observed
[14] = 0.01N NaOH Dark, Vis-UV Stability (1.2 Mil lux-hours + 200 Watt-hours/m^2), final pH 11.7, precipitation observed
[15] = 0.01N NaOH Light, Vis Stability (1.2 Mil lux-hours), final pH 11.7, precipitation observed
[16] = 0.01N NaOH Light, Vis-UV Stability (1.2 Mil lux-hours + 200 Watt-hours/m^2), final pH 11.7, precipitation observed
[17] = H2O Dark, Vis Stability (1.2 Mil lux-hours), final pH 7.7
[18] = H2O Dark, Vis-UV Stability (1.2 Mil lux-hours + 200 Watt-hours/m^2), final pH 8.1
[19] = H2O Light, Vis Stability (1.2 Mil lux-hours), final pH 7.3
[20] = H2O Light, Vis-UV Stability (1.2 Mil lux-hours + 200 Watt-hours/m^2), final pH 7.3

Remaining Solid ([1]; Acetone): Form B
Remaining Solid ([1]; Acetonitrile): Form B
solubility at 24 h ([1]; Ethanol): > 87 mg/mL
solubility at 24 h ([1]; Isopropanol): > 129 mg/mL
solubility at 24 h ([1]; Methanol): > 200 mg/mL
% area (100% − TRS%) [2, 5]: 99.7%
% claim (Cs/Ci × 100%) [2, 5]: 100.0%
% area (100% − TRS%) [2, 6]: 99.8%
% claim (Cs/Ci × 100%) [2, 6]: 100.0%
% area (100% − TRS%) [2, 7]: 99.8%
% claim (Cs/Ci × 100%) [2, 7]: 101.1%
% area (100% − TRS%) [2, 8]: 99.8%
% claim (Cs/Ci × 100%) [2, 8]: 99.6%
solid-state photostability ([2]; exposure to full ICH photostability requirement, versus dark control): stable
% area (100% − TRS%) [3, 9]: 99.4%
% claim (Cs/Ci × 100%) [3, 9]: 100.0%
% area (100% − TRS%) [3, 10]: 99.9%
% claim (Cs/Ci × 100%) [3, 10]: 100.0%
% area (100% − TRS%) [3, 11]: 98.5%
% claim (Cs/Ci × 100%) [3, 11]: 98.8%
% area (100% − TRS%) [3, 12]: 99.9%
% claim (Cs/Ci × 100%) [3, 12]: 99.9%
% area (100% − TRS%) [3, 13]: 99.7%
% claim (Cs/Ci × 100%) [3, 13]: 100.0%
% area (100% − TRS%) [3, 14]: 100.0%
% claim (Cs/Ci × 100%) [3, 14]: 100.0%
% area (100% − TRS%) [3, 15]: 99.6%
% claim (Cs/Ci × 100%) [3, 15]: 44.5%
% area (100% − TRS%) [3, 16]: 99.3%
% claim (Cs/Ci × 100%) [3, 16]: 66.3%
% area (100% − TRS%) [3, 17]: 100.0%
% claim (Cs/Ci × 100%) [3, 17]: 100.0%
% area (100% − TRS%) [3, 18]: 100.0%
% claim (Cs/Ci × 100%) [3, 18]: 100.0%
% area (100% − TRS%) [3, 19]: 99.6%
% claim (Cs/Ci × 100%) [3, 19]: 98.5%
% area (100% − TRS%) [3, 20]: 99.3%
% claim (Cs/Ci × 100%) [3, 20]: 94.7%
solution photostability ([3]; in water and 0.01N HCl solution, exposure to UV/Vis): stable
Solubility ([4]; 50 mM Na carbonate buffer, pH (initial) 10.0, pH (final) 10.0, RT, 24 h): <LOD
Solubility ([4]; 50 mM Na phosphate buffer, pH (initial) 8.0, pH (final) 8.0, RT, 24 h): <LOD^§
solubility at 24 h ([4]; 50 mM sodium citrate buffer, 25 °C, pH 6, aqueous buffer, thermodynamic from solid, 50 mM sodium citrate, pH (initial) 6.0, pH (final) 6.0, RT): 0.08 mg/mL
Remaining Solid ([4]; Water, RT, 24 h, XRPD): Form B
SMILES: CC(C)N(C[C@H]1O[C@@H](n2cnc3c(N)ncnc32)[C@H](O)[C@@H]1O)[C@H]1C[C@@H](CCc2nc3cc(C(C)(C)C)ccc3[nH]2)C1 [Form B, (2R,3R,4S,5R)-2-(6-amino-9H-purin-9-yl)-5-((((1r,3S)-3-(2-(5-(tert-butyl)-1H-benzo[d]imidazol-2-yl)ethyl)cyclobutyl)(isopropyl)amino)methyl)tetrahydrofuran-3,4-diol trihydrate]
